target: hepatitis C virus RNA dependant polymerase (NS5B) (Hepatitis C virus genotype 1b, UniProt P26663); experiment: Inhibition of NS5B RNA dependent RNA polymerase activity; format: biochemical; conditions: Table 4; class ranges
Method: A suitable assay is described in the examples.
Inhibition of NS5B RNA Dependent RNA Polymerase Activity
The compounds of the invention were tested for inhibitory activity against the hepatitis C virus RNA dependant polymerase (NS5B), according to protocol described in WO 03/010141

Sequence of hepatitis C virus RNA dependant polymerase (NS5B) (P26663 2420-3010): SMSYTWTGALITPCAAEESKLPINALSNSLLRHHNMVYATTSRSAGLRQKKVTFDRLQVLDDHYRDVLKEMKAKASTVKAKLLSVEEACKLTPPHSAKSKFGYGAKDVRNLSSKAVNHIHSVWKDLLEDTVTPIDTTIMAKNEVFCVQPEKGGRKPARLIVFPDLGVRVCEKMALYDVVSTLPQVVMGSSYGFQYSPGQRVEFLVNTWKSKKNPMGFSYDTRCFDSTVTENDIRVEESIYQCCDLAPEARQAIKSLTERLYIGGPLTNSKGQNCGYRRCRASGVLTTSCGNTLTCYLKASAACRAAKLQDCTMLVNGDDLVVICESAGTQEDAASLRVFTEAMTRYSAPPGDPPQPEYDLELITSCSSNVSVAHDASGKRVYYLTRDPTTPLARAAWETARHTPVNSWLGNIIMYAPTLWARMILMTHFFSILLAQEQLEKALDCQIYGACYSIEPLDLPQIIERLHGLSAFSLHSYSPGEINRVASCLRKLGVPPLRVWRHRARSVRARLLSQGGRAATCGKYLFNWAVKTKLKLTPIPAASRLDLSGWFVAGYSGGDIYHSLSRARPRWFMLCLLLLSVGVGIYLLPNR

SMILES | IC50
CN(C)C(=O)C1(NC(=O)c2ccc3c(C4CCCCC4)c(-c4ccoc4)n(CC(=O)N4CCC(N5CCCC5)CC4)c3c2)CCCC1 [Example 4095] | < 0.2 µM
CNC(=O)C1(NC(=O)c2ccc3c(C4CCCCC4)c(-c4ccoc4)n(CC(=O)N4CCOCC4)c3c2)CCCC1 [Example 4096] | < 0.2 µM
CN(C)C(=O)C1(NC(=O)c2ccc3c(C4CCCCC4)c(-c4ccoc4)n(CC(=O)N4CCOCC4)c3c2)CCCC1 [Example 4097] | < 0.2 µM
Cc1nc(C2(NC(=O)c3ccc4c(C5CCCCC5)c(-c5ccoc5)n(CC(=O)N5CCOCC5)c4c3)CCC2)cs1 [Example 4098] | 0.2 to 1 µM
Cn1c(C2(NC(=O)c3ccc4c(C5CCCCC5)c(-c5ccoc5)n(CC(N)=O)c4c3)CCC2)nc2ccc(C=CC(=O)O)cc21 [Example 4100] | < 0.2 µM
O=C(NC1(c2csc(Nc3ccccc3)n2)CCC1)c1ccc2c(C3CCCCC3)c(-c3ccoc3)n(CC(=O)N3CCC(N4CCCC4)CC3)c2c1 [Example 4101] | 0.2 to 1 µM
CC(=O)Nc1nc(C2(NC(=O)c3ccc4c(C5CCCCC5)c(-c5ccoc5)n(CC(=O)N5CCC(N6CCCC6)CC5)c4c3)CCC2)cs1 [Example 4102] | < 0.2 µM
CNc1nc(C2(NC(=O)c3ccc4c(C5CCCCC5)c(-c5ccoc5)n(CC(=O)N5CCC(N6CCCC6)CC5)c4c3)CCC2)cs1 [Example 4103] | < 0.2 µM
O=C(NC1(c2csc(Cc3ccccc3)n2)CCC1)c1ccc2c(C3CCCCC3)c(-c3ccoc3)n(CC(=O)N3CCC(N4CCCC4)CC3)c2c1 [Example 4104] | 1 to 10 µM
CC(C)Nc1nc(C2(NC(=O)c3ccc4c(C5CCCCC5)c(-c5ccoc5)n(CC(=O)N5CCC(N6CCCC6)CC5)c4c3)CCC2)cs1 [Example 4105] | 0.2 to 1 µM
CCc1nc(C2(NC(=O)c3ccc4c(C5CCCCC5)c(-c5ccoc5)n(CC(=O)N5CCC(N6CCCC6)CC5)c4c3)CCC2)cs1 [Example 4107] | < 0.2 µM
CCOC(=O)c1nc(C2(NC(=O)c3ccc4c(C5CCCCC5)c(-c5ccoc5)n(CC(=O)N5CCC(N6CCCC6)CC5)c4c3)CCC2)cs1 [Example 4108] | 0.2 to 1 µM

Continued, values first:

IC50 | SMILES
< 0.2 µM | CNC(=O)C1(NC(=O)c2ccc3c(C4CCCCC4)c(-c4ccoc4)n(CC(=O)N4CCC(N5CCCC5)CC4)c3c2)CCCC1 [Example 4094]
< 0.2 µM | Cc1nc(C2(NC(=O)c3ccc4c(C5CCCCC5)c(-c5ccoc5)n(CC(=O)N5CCC(N6CCCC6)CC5)c4c3)CCC2)cs1 [Example 4099]
< 0.2 µM | CS(=O)(=O)NC(=O)c1ccc2c(C3CCCCC3)c(-c3ccoc3)n(CC(=O)N3CCC(N4CCCC4)CC3)c2c1 [Example 4109]
< 0.2 µM | O=C(NS(=O)(=O)c1ccccc1)c1ccc2c(C3CCCCC3)c(-c3ccoc3)n(CC(=O)N3CCC(N4CCCC4)CC3)c2c1 [Example 4110]

same assay, conditions: Table 5; HCV NS5B polymerase

IC50 | SMILES
0.2 to 1 µM | O=C(O)c1ccc2c(C3CCCCC3)c(-c3ccoc3)n(CC(=S)N3CCOCC3)c2c1 [Example 5001]
0.2 to 1 µM | O=C(O)c1ccc2c(C3CCCCC3)c(-c3ccoc3)n(CCC(=O)N3CCOCC3)c2c1 [Example 5002]
1 to 10 µM | CN(C)C(=O)CCn1c(-c2ccoc2)c(C2CCCCC2)c2ccc(C(=O)O)cc21 [Example 5003]
0.2 to 1 µM | C=CCn1c(-c2ccoc2)c(C2CCCCC2)c2ccc(C(=O)O)cc21 [Example 5004]
1 to 10 µM | C/C=C/Cn1c(-c2ccoc2)c(C2CCCCC2)c2ccc(C(=O)O)cc21 [Example 5005]
1 to 10 µM | CC(C)=CCn1c(-c2ccoc2)c(C2CCCCC2)c2ccc(C(=O)O)cc21 [Example 5006]
0.2 to 1 µM | C=C(C)Cn1c(-c2ccoc2)c(C2CCCCC2)c2ccc(C(=O)O)cc21 [Example 5007]
1 to 10 µM | CC(C(=O)N1CCOCC1)n1c(-c2ccoc2)c(C2CCCCC2)c2ccc(C(=O)O)cc21 (centres unmarked) [Example 5008]
1 to 10 µM | CC(C(=O)N(C)C)n1c(-c2ccoc2)c(C2CCCCC2)c2ccc(C(=O)O)cc21 (centres unmarked) [Example 5009]

same assay, conditions: Table 6; HCV NS5B polymerase

IC50 | SMILES
0.2 to 1 µM | O=C(O)c1ccc2c(c1)c(C1CCCCC1)c(-c1ccoc1)n2CC(=O)N1CCOCC1 [Example 6001]
< 0.2 µM | O=C(O)c1ccc2c(c1)c(C1CCCCC1)c(-c1ccoc1)n2CC(=O)N1CCC(N2CCCC2)CC1 [Example 6002]
0.2 to 1 µM | CN(C)C(=O)Cn1c(-c2ccoc2)c(C2CCCCC2)c2cc(C(=O)O)ccc21 [Example 6003]

same assay, conditions: Table 7; class ranges

SMILES | IC50
Cc1c(C(=O)O)ccc2c(C3CCCCC3)c(-c3ccoc3)n(CC(=O)N3CCOCC3)c12 [Example 7005] | < 0.2 µM
COc1cc2c(C3CCCCC3)c(-c3ccoc3)n(CC(=O)N(C)C)c2cc1C(=O)O [Example 7006] | 0.2 to 1 µM
O=C(O)c1cc2c(cc1O)c(C1CCCCC1)c(-c1ccoc1)n2CC(=O)N1CCOCC1 [Example 7008] | 1 to 10 µM
CN(C)C(=O)Cn1c(-c2ccoc2)c(C2CCCCC2)c2cc(O)c(C(=O)O)cc21 [Example 7009] | 1 to 10 µM
O=C(O)COc1cc2c(C3CCCCC3)c(-c3ccoc3)n(CC(=O)N3CCOCC3)c2cc1C(=O)O [Example 7011] | 1 to 10 µM
O=C(NC1CCCc2ccccc21)c1ccc2c(c1)c(C1CCCCC1)c(-c1ccoc1)n2CC(=O)N1CCC(N2CCCC2)CC1 (centres unmarked) [Example 7012] | 1 to 10 µM
O=C(Nc1ccc(N2CCOCC2)cc1)c1ccc2c(c1)c(C1CCCCC1)c(-c1ccoc1)n2CC(=O)N1CCC(N2CCCC2)CC1 [Example 7018] | 1 to 10 µM
CN(CCc1ccccn1)C(=O)c1ccc2c(c1)c(C1CCCCC1)c(-c1ccoc1)n2CC(=O)N1CCC(N2CCCC2)CC1 [Example 7020] | 1 to 10 µM
O=C(Nc1ccc(CCO)cc1)c1ccc2c(c1)c(C1CCCCC1)c(-c1ccoc1)n2CC(=O)N1CCC(N2CCCC2)CC1 [Example 7024] | 1 to 10 µM
O=C(NC(Cc1ccccc1)c1ccccc1)c1ccc2c(c1)c(C1CCCCC1)c(-c1ccoc1)n2CC(=O)N1CCC(N2CCCC2)CC1 (centres unmarked) [Example 7025] | 1 to 10 µM
NS(=O)(=O)c1ccc(CCNC(=O)c2ccc3c(c2)c(C2CCCCC2)c(-c2ccoc2)n3CC(=O)N2CCC(N3CCCC3)CC2)cc1 [Example 7032] | 1 to 10 µM
O=C(NCc1c(F)cccc1Cl)c1ccc2c(c1)c(C1CCCCC1)c(-c1ccoc1)n2CC(=O)N1CCC(N2CCCC2)CC1 [Example 7036] | 1 to 10 µM
O=C(Nc1cccc(-c2ccccc2)c1)c1ccc2c(c1)c(C1CCCCC1)c(-c1ccoc1)n2CC(=O)N1CCC(N2CCCC2)CC1 [Example 7037] | 1 to 10 µM
O=C(NCCSCc1c(F)cccc1Cl)c1ccc2c(c1)c(C1CCCCC1)c(-c1ccoc1)n2CC(=O)N1CCC(N2CCCC2)CC1 [Example 7038] | 1 to 10 µM

Further lines, results first:

IC50 | SMILES
0.2 to 1 µM | COc1cc2c(C3CCCCC3)c(-c3ccoc3)n(CC(=O)N3CCOCC3)c2cc1C(=O)O [Example 7002]
0.2 to 1 µM | COc1cc2c(C3CCCCC3)c(-c3ccoc3)n(CC(=O)N3CCC(N4CCCC4)CC3)c2cc1C(=O)O [Example 7003]
< 0.2 µM | Cc1c(C(=O)O)ccc2c(C3CCCCC3)c(-c3ccoc3)n(CC(=O)N3CCC(N4CCCC4)CC3)c12 [Example 7004]
1 to 10 µM | O=C(O)c1cc2c(cc1O)c(C1CCCCC1)c(-c1ccoc1)n2CC(=O)N1CCC(N2CCCC2)CC1 [Example 7007]
1 to 10 µM | COC(=O)c1cc2c(cc1O)c(C1CCCCC1)c(-c1ccoc1)n2CC(=O)N1CCC(N2CCCC2)CC1 [Example 7010]
1 to 10 µM | CCN1CCCC1CNC(=O)c1ccc2c(c1)c(C1CCCCC1)c(-c1ccoc1)n2CC(=O)N1CCC(N2CCCC2)CC1 (centres unmarked) [Example 7013]
1 to 10 µM | O=C(NCCN1CCCC1)c1ccc2c(c1)c(C1CCCCC1)c(-c1ccoc1)n2CC(=O)N1CCC(N2CCCC2)CC1 [Example 7014]
1 to 10 µM | O=C(NCCc1c[nH]cn1)c1ccc2c(c1)c(C1CCCCC1)c(-c1ccoc1)n2CC(=O)N1CCC(N2CCCC2)CC1 [Example 7015]
1 to 10 µM | O=C(NCC1CCCO1)c1ccc2c(c1)c(C1CCCCC1)c(-c1ccoc1)n2CC(=O)N1CCC(N2CCCC2)CC1 (centres unmarked) [Example 7016]
1 to 10 µM | NC(=O)C1CCCN(C(=O)c2ccc3c(c2)c(C2CCCCC2)c(-c2ccoc2)n3CC(=O)N2CCC(N3CCCC3)CC2)C1 (centres unmarked) [Example 7017]
1 to 10 µM | O=C(NCc1ccccn1)c1ccc2c(c1)c(C1CCCCC1)c(-c1ccoc1)n2CC(=O)N1CCC(N2CCCC2)CC1 [Example 7019]
1 to 10 µM | O=C(NCc1cccnc1)c1ccc2c(c1)c(C1CCCCC1)c(-c1ccoc1)n2CC(=O)N1CCC(N2CCCC2)CC1 [Example 7021]
1 to 10 µM | O=C(Nc1ccccc1)c1ccc2c(c1)c(C1CCCCC1)c(-c1ccoc1)n2CC(=O)N1CCC(N2CCCC2)CC1 [Example 7023]
1 to 10 µM | CC(NC(=O)c1ccc2c(c1)c(C1CCCCC1)c(-c1ccoc1)n2CC(=O)N1CCC(N2CCCC2)CC1)c1ccccc1 (centres unmarked) [Example 7026]
1 to 10 µM | O=C(NCc1ccccc1)c1ccc2c(c1)c(C1CCCCC1)c(-c1ccoc1)n2CC(=O)N1CCC(N2CCCC2)CC1 [Example 7027]
1 to 10 µM | COc1ccc(CNC(=O)c2ccc3c(c2)c(C2CCCCC2)c(-c2ccoc2)n3CC(=O)N2CCC(N3CCCC3)CC2)cc1OC [Example 7028]
1 to 10 µM | Cc1cccc(CNC(=O)c2ccc3c(c2)c(C2CCCCC2)c(-c2ccoc2)n3CC(=O)N2CCC(N3CCCC3)CC2)c1 [Example 7029]
1 to 10 µM | CC(CNC(=O)c1ccc2c(c1)c(C1CCCCC1)c(-c1ccoc1)n2CC(=O)N1CCC(N2CCCC2)CC1)c1ccccc1 (centres unmarked) [Example 7030]
1 to 10 µM | CC(=O)NCCNC(=O)c1ccc2c(c1)c(C1CCCCC1)c(-c1ccoc1)n2CC(=O)N1CCC(N2CCCC2)CC1 [Example 7031]
1 to 10 µM | CN(C)C(=O)c1ccc2c(c1)c(C1CCCCC1)c(-c1ccoc1)n2CC(=O)N1CCC(N2CCCC2)CC1 [Example 7033]
1 to 10 µM | CNC(=O)c1ccc2c(c1)c(C1CCCCC1)c(-c1ccoc1)n2CC(=O)N1CCC(N2CCCC2)CC1 [Example 7034]
1 to 10 µM | NC(=O)C1CCN(C(=O)c2ccc3c(c2)c(C2CCCCC2)c(-c2ccoc2)n3CC(=O)N2CCC(N3CCCC3)CC2)CC1 [Example 7035]
1 to 10 µM | CC(=O)NC1CCN(C(=O)c2ccc3c(c2)c(C2CCCCC2)c(-c2ccoc2)n3CC(=O)N2CCC(N3CCCC3)CC2)C1 (centres unmarked) [Example 7039]

Reference: patent US7888363B2, “Viral polymerase inhibitors” (Boehringer Ingelheim International GmbH, priority 2003, dated 2011)
